Test results published in ChEMBL document CHEMBL5247626, “In vitro and in vivo biological evaluation of newly synthesized multi-target 20(R)-panaxadiol derivatives for treating Alzheimer's disease” (Eur J Med Chem, 2022).
The source made the active and inactive calls. The rule behind the calls is not given here.

Assays:
[1] = Permeability of the compound incubated for 4 hrs by PAMPA-BBB assay based HPLC analysis
[2] = C0 in Sprague-Dawley rat at 10 mg/kg,iv measured at 0.083 to 24 hrs post administration by LC-MS/MS analysis; format: ADME, organism-based; conditions: in vivo, time 0.083-24 hrs
[3] = Half life in Sprague-Dawley rat at 10 mg/kg,iv measured at 0.083 to 24 hrs post administration by LC-MS/MS analysis; format: ADME, organism-based; conditions: in vivo, time 0.083-24 hrs
[4] = MRT (0 to t) in Sprague-Dawley rat at 10 mg/kg,iv measured at 0.083 to 24 hrs post administration by LC-MS/MS analysis; format: ADME, organism-based; conditions: in vivo, time 0.083-24 hrs
[5] = Volume of distribution of steady state in Sprague-Dawley rat at 10 mg/kg,iv measured at 0.083 to 24 hrs post administration by LC-MS/MS analysis; format: ADME, organism-based; conditions: in vivo, time 0.083-24 hrs, read-out: Vdss
[6] = Tmax in Sprague-Dawley rat at 60 mg/kg,po measured at 0.25 to 24 hrs post administration by LC-MS/MS analysis; format: ADME, organism-based; conditions: in vivo, time 0.25-24 hrs
[7] = Oral bioavailability in Sprague-Dawley rat at 60 mg/kg measured after 0.25 to 24 hrs post administration by LC-MS/MS analysis; format: ADME, organism-based; conditions: in vivo, time 0.25-24 hrs
[8] = system: N2a; assay: Cytotoxicity against mouse Neuro2a cells assessed as effect on survival at < 60 uM incubated for 24 hrs by MTT assay; format: toxicity, cell-based
[9] = system: HepG2; assay: Cytotoxicity against human HepG2 cells assessed as effect on survival at < 60 uM incubated for 24 hrs by MTT assay; format: toxicity, cell-based; conditions: hepg2, 24 h
[10] = system: N2a; assay: Cytotoxicity against mouse Neuro2a cells assessed as decrease in cell viability at 120 uM incubated for 24 hrs by MTT assay; format: toxicity, cell-based
[11] = system: HUVEC; assay: Cytotoxicity against human HUVEC cells assessed as decrease in cell viability at 120 uM incubated for 24 hrs by MTT assay; format: toxicity, cell-based
[12] = Cytotoxicity against human HUVEC cells assessed as cell viability at 120 uM incubated for 24 hrs by MTT assay; format: toxicity, cell-based; conditions: read-out: Activity
[13] = system: PC-12; assay: Neuroprotective activity against amyloid beta (25 to 35)-induced rat PC12 cells assessed as reduction in amyloid beta (25 to 35)-induced apoptosis rate at 7.5 uM incubated for 15 mins by Annexin V-FITC/PI staining based flow cytometric analysis (reference value: 2.9%); format: functional; design: scale not given: the % may be the effect or the level left; conditions: 0.25 h
[14] = system: PC-12; assay: Neuroprotective activity against amyloid beta (25 to 35)-induced rat PC12 cells assessed as decrease in amyloid beta level at 3.75 to 30 uM incubated for 30 mins followed by amyloid beta (25 to 35) addition and measured after 24 hrs by ELISA; format: functional, cell-based; conditions: dose 3.75-30 µM, time 24.5 hrs
[15] = biological target: Amyloid-beta precursor protein (Homo sapiens) (UniProt P05067); assay: Disaggregation of amyloid beta (25 to 35) (unknown origin) self aggregation at 15 uM incubated for 24 hrs by transmission electron microscopy analysis
[16] = system: PC-12; assay: Neuroprotective activity against amyloid beta (25 to 35)-induced rat PC12 cells assessed as decrease in beta-secretase protein expression level at 3.75 to 30 uM incubated for 30 mins followed by amyloid beta (25 to 35) addition and measured after 24 hrs by ELISA; format: functional, cell-based; conditions: dose 3.75-30 µM, time 24.5 hrs
[17] = system: PC-12; assay: Neuroprotective activity against amyloid beta (25 to 35)-induced rat PC12 cells assessed as decrease in IL-1beta expression level at 7.5 to 30 uM preincubated for 30 mins followed by amyloid beta (25 to 35) addition and measured after 24 hrs by western blot assay; format: functional, cell-based; conditions: dose 7.5-30 µM, time 24.5 hrs
[18] = system: PC-12; assay: Neuroprotective activity against amyloid beta (25 to 35)-induced rat PC12 cells assessed as decrease in p38 expression level at 7.5 to 30 uM preincubated for 30 mins followed by amyloid beta (25 to 35) addition and measured after 24 hrs by western blot assay; format: functional, cell-based; conditions: dose 7.5-30 µM, time 24.5 hrs
[19] = system: PC-12; assay: Neuroprotective activity against amyloid beta (25 to 35)-induced rat PC12 cells assessed as decrease in JNK phosphorylation level at 7.5 to 30 uM preincubated for 30 mins followed by amyloid beta (25 to 35) addition and measured after 24 hrs by western blot assay; format: functional, cell-based; conditions: dose 7.5-30 µM, time 24.5 hrs
[20] = system: Mus musculus; assay: Antialzheimer activity against amyloid beta (25 to 35)-induced cognitive deficit ICR mouse model assessed as effect on total number of arm enteries at 12.5 to 50 mg/kg,po observed after 11 days of administration by Y maze test; format: functional, organism-based; conditions: dose 12.5-50 mg/kg, time 11.0 day
[21] = system: Mus musculus; assay: Antialzheimer activity against amyloid beta (25 to 35)-induced cognitive deficit ICR mouse model assessed as increase in discrimination index at 50 mg/kg,po observed after 1 hr of administration by novel object recognition test; format: functional, organism-based
[22] = system: Mus musculus; assay: Antialzheimer activity against amyloid beta (25 to 35)-induced cognitive deficit ICR mouse model assessed as increase in preferential index at 25 mg/kg,po observed after 1 hr of administration by novel object recognition test; format: functional, organism-based
[23] = system: Mus musculus; assay: Antialzheimer activity against amyloid beta (25 to 35)-induced cognitive deficit ICR mouse model assessed as increase in discrimination index at 50 mg/kg,po observed after 24 hrs of administration by novel object recognition test; format: functional, organism-based
[24] = system: Mus musculus; assay: Antialzheimer activity against amyloid beta (25 to 35)-induced cognitive deficit ICR mouse model assessed as increase in preferential index at 50 mg/kg,po observed after 24 hrs of administration by novel object recognition test; format: functional, organism-based
[25] = system: Mus musculus; assay: Antialzheimer activity against amyloid beta (25 to 35)-induced spatial memory deficit ICR mouse model assessed as increase in exploration time spent at 50 mg/kg,po observed at 16 to 20 days of administration by morris water maze test; format: functional, organism-based; conditions: time 16-20 day
[26] = system: Mus musculus; assay: Antialzheimer activity against amyloid beta (25 to 35)-induced brain injury ICR mouse model assessed as attenuation of pathological change in hippocampal CAl region at 12.5 to 50 mg/kg,po administrated for 21 days by hematoxylin and eosin staining based microscopic analysis; format: functional, organism-based; conditions: dose 12.5-50 mg/kg, time 21.0 day
[27] = system: Mus musculus; assay: Antialzheimer activity against amyloid beta (25 to 35)-induced brain injury ICR mouse model assessed as attenuation of pathological change in cerebral cortex at 12.5 to 50 mg/kg,po administrated for 21 days by hematoxylin and eosin staining based microscopic analysis; format: functional, organism-based; conditions: dose 12.5-50 mg/kg, time 21.0 day
[28] = system: Mus musculus; assay: Antialzheimer activity against amyloid beta (25 to 35)-induced brain injury ICR mouse model assessed as increase in NeuN expression level in hippocampal CA1 region at 50 mg/kg,po administrated for 21 days by immunohistochemistry analysis; format: functional, organism-based; conditions: time 21.0 day
[29] = system: Mus musculus; assay: Antialzheimer activity against amyloid beta (25 to 35)-induced brain injury ICR mouse model assessed as increase in NeuN expression level in cerebral cortex at 50 mg/kg,po administrated for 21 days by immunohistochemistry analysis; format: functional, organism-based; conditions: time 21.0 day
[30] = Toxicity in ICR mouse assessed as pathological changes in liver at 12.5 to 50 mg/kg,po administrated for 20 days by hematoxylin and eosin staining based microscopic analysis; format: organism-based; conditions: in vivo, 480 h, dose 12.5-50 mg/kg, time 20 day
[31] = Toxicity in ICR mouse assessed as pathological changes in kidney at 12.5 to 50 mg/kg,po administrated for 20 days by hematoxylin and eosin staining based microscopic analysis; format: organism-based; conditions: in vivo, 480 h, dose 12.5-50 mg/kg, time 20 day

Chain of Amyloid-beta precursor protein (Homo sapiens) (P05067 whole entry): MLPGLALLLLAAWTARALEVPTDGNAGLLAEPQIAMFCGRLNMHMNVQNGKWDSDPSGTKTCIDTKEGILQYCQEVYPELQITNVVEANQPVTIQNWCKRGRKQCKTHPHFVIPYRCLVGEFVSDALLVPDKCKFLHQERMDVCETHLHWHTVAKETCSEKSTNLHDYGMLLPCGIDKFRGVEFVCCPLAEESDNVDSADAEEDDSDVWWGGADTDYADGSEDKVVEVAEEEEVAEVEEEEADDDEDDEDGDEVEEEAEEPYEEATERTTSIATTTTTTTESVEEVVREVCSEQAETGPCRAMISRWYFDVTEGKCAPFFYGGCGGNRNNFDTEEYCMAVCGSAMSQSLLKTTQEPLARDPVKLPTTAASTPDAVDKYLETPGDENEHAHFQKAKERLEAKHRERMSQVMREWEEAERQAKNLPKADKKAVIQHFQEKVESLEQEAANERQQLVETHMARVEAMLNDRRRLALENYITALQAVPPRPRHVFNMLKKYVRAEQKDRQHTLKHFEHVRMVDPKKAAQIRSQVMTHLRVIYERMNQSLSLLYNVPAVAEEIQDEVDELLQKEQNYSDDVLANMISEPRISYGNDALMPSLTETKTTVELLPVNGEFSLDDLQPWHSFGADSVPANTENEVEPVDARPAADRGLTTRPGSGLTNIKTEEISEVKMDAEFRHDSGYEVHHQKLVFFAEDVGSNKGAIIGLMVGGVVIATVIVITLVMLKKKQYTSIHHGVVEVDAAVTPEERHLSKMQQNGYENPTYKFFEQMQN

Papp at 4 h [1]: 26.1 ×10⁻⁶ cm/s
C0 [2]: 237 µg/mL
half-life [3]: 2.6 h
MRT last [4]: 0.426 h
Vd [5]: 0.133 L/kg
Tmax [6]: 1.33 h
bioavailability [7]: 0.2%
Activity [15]: Active
SMILES: CC1(C)CCC[C@](C)([C@H]2CC[C@]3(C)[C@@H]2[C@H](O)C[C@@H]2[C@@]4(C)CC[C@H](OC(=O)NCc5ccccc5)C(C)(C)[C@@H]4CC[C@]23C)O1
Activity [8]: Non-Toxic
Activity [9]: Non-Toxic
Activity [10]: Toxic
Activity [11]: Toxic
viability at 24 h, 120 µM [12]: > 50%
Activity [13]: 14.1%
Activity [14]: Active
Activity [16]: Active
Activity [17]: Active
Activity [18]: Active
Activity [19]: Active
Activity [20]: inactive
Activity [21]: inactive
Activity [22]: inactive
Activity [23]: Active
Activity [24]: Active
Activity [25]: Active
Activity [26]: Active
Activity [27]: Active
Activity [28]: Active
Activity [29]: Active
Activity [30]: Non-Toxic
Activity [31]: Non-Toxic
